Measurements from patent publication US11312737B2, “Amide-linked EP4 agonist-bisphosphonate compounds and uses thereof” (SIMON FRASER UNIVERSITY, priority 2015, dated 2022).
Values belong to the compound of their own block, whether it stands above or below them.

How the values were obtained:
[1] = test system: leukocytes; assay: Neutrophil function effects; assay type: cell-based; conditions: for neutrophil speed / activity in leukocytes (neutrophil function): FIG. 13
[2] = In vivo uptake and release studies of tritium labelled C3-conjugate over 28 days; conditions: rat
Description: In vivo uptake and release studies using tritium labelled C3-conjugate compound were performed. After intravenous dosing of 1-5 μCi/5 mg/kg of [^3H]-C3 to 15 rats, groups of 3 rats were euthanized at each time point a at t=6 h, 24 h, 7 d, 14 d, 28 d). The radioactivity in blood samples, spleen, liver and long bones was counted for each group of rats. […] After one week, 53% of label was eliminated and only traces were detected after 28 days (FIG. 6). In spleen, the counted radioactivity decreased from 1% 6 hours after dosing to 0.4% at t=28 days (FIG. 6).

[3] = In vivo uptake studies of tritium labelled C3, C4 and C5-conjugates 6 hours after dosing; conditions: rat; for % of the initial dose found in muscle: 6 hours after dosing; for uptake into long bones, % of initial dose: 6 hours after injection, tritium label
Description: The three conjugate compounds, C3, C4 and C5, were radiolabelled with tritium in the EP4 agonist moiety and used to monitor in vivo distribution in rat organs and uptake into bone after intravenous dosing.
The radioactivity in organs (heart, kidney, brain, muscle, one piece of muscle attached to bone, spleen and liver) was counted 6 hours after dosing (FIG. 3). For the C3-conjugate compound, calculations were done based on results obtained from two rats. Most of the labelled conjugate compounds were taken up into liver (65-74%), and about 1% and 0.2% were found in spleen and kidneys for all labelled conjugate compounds, after 6 hours. About 0.2% of the initial dose of the C4 and C5-conjugate compounds, and 2% of the C3-conjugate compound, was found in muscle. All other organs contained 0.05% of the initial dose of the conjugate compounds.
Finally, the uptake of the tritiated C3, C4 and C5-conjugate compounds into bones was counted (FIG. 4). All three conjugate compounds were well taken up into bone.

[4] = Stability of conjugate compounds in rat plasma; conditions: fresh rat plasma, 37° C., 100 μg/mL
Description: The amide-linked conjugate compounds were examined for their stability in rat plasma. […] The mixture was then incubated at 37° C. for 24 h. Aliquots of 10 μL were removed at 0, 2, 4, 6, 7 and 24 h, mixed to 10 mg of bone powder and 10-fold diluted with water in a 0.6 mL Eppendorf tube. A gentle stirring was applied for 20 min. 50 μL were then used to count the activity.

counted radioactivity in spleen ([2]; 6 hours after dosing): 1%
tritiated conjugate found in liver ([2]; 6 hours after injection): 69%
tritiated conjugate in liver ([2]; after 24 hours): remained in a high proportion
conjugate remained attached to bone ([2]; after 7 days, tritium label): 5.5%
tritiated conjugate in liver ([2]; after 28 days): only traces
label eliminated from liver ([2]; after one week): 53%
half-life (tritium label on bone) ([2]; calculated from bone data over 28 days): about 8 days
% of the initial dose observed in bone ([2]; end of the study (28 days), tritium label): 1.4%
activity detected in the bloodstream ([2]; over 28 days, tritium label): Very low activity
counted radioactivity in spleen ([2]; t=28 days): 0.4%
clearance from plasma ([2]; tritium label): rapid clearance
% of the initial dose found in muscle [3]: ~2%
hydrolysis after 24 h-incubation [4]: About 10%
SMILES: CCOC(=O)CCCCCCN1C(=O)CC[C@@H]1/C=C/[C@@H](OC(=O)Cc1ccc(C(=O)NCCCC(O)(P(=O)(O)O)P(=O)(O)O)cc1)C(F)(F)c1ccccc1 [C3-conjugate, Sodium (4-(4-(2-(((R,E)-4-((R)-1-(7-ethoxy-7-oxoheptyl)-5-oxopyrrolidin-2-yl)-1,1-difluoro-1-phenylbut-3-en-2-yl)oxy)-2-oxoethyl)benzamido)-1-hydroxybutane-1,1-diyl)bis(hydrogen phosphonate)]
neutrophil speed [1]: low neutrophil speed

SMILES: NCCCC(O)(P(=O)(O)O)P(=O)(O)O [alendronate, 4-amino-1-hydroxybutylidene-1,1-bisphosphonic acid monosodium trihydrate, reference compound]
activity in leukocytes (neutrophil function) [1]: active

SMILES: O=C(O)Cc1ccc(C(=O)NCCC(O)(P(=O)(O)O)P(=O)(O)O)cc1 [fragment 5, Sodium2-(4-((3-hydroxy-3,3-bis(hydroxyoxidophosphoryl)propyl)carbamoyl)phenyl)acetate]
activity in leukocytes (neutrophil function) [1]: neither fragment 4 nor 5 exhibited significant activity

% of the initial dose found in muscle [3]: About 0.2%
uptake into long bones, % of initial dose [3]: about 10%
SMILES: CCOC(=O)CCCCCCN1C(=O)CC[C@@H]1/C=C/[C@@H](OC(=O)Cc1ccc(C(=O)NCCCCCC(O)(P(=O)(O)O)P(=O)(O)O)cc1)C(F)(F)c1ccccc1 [C5-conjugate, Sodium (6-(4-(2-(((R,E)-4-((R)-1-(7-ethoxy-7-oxoheptyl)-5-oxopyrrolidin-2-yl)-1,1-difluoro-1-phenyibut-3-en-2-yl)oxy)-2-oxoethyl)benzamido)-1-hydroxyhexane-1,1-diyl)bis(hydrogen phosphonate)]

% of the initial dose found in muscle [3]: About 0.2%
uptake into long bones, % of initial dose [3]: about 10%
SMILES: CCOC(=O)CCCCCCN1C(=O)CC[C@@H]1/C=C/[C@@H](OC(=O)Cc1ccc(C(=O)NCCC(O)(P(=O)(O)O)P(=O)(O)O)cc1)C(F)(F)c1ccccc1 [C4-conjugate, Sodium (3-(4-(2-(((R,E)-4-((R)-1-(7-ethoxy-7-oxoheptyl)-5-oxopyrrolidin-2-yl)-1,1-difluoro-1-phenylbut-3-en-2-yl)oxy)-2-oxoethypbenzamido)-1-hydroxypropane-1,1-diyl)bis(hydrogen phosphonate)]
activity in leukocytes (neutrophil function) [1]: active

SMILES: NCCC(O)(P(=O)(O)O)P(=O)(O)O [pamidronate, 3-amino-1-hydroxypropylidene-1,1-bisphosphonic acid, reference compound]
activity in leukocytes (neutrophil function) [1]: active

SMILES: O=C(O)Cc1ccc(C(=O)NCCCC(O)(P(=O)(O)O)P(=O)(O)O)cc1 [fragment 4, Sodium 2-(4-((4-hydroxy-4,4-bis(hydroxyoxidophosphoryl)butyl)carbamoyl)phenyl)acetate]
biological activity compared to alendronate alone [1]: biologically inactive
activity in leukocytes (neutrophil function) [1]: neither fragment 4 nor 5 exhibited significant activity

SMILES: CCOC(=O)CCCCCCN1C(=O)CC[C@@H]1/C=C/[C@@H](O)C(F)(F)c1ccccc1 [EP4 agonist, ethyl 7-((R)-2-((R,E)-4,4-difluoro-3-hydroxy-4-phenylbut-1-en-1-yl)-5-oxopyrrolidin-1-yl)heptanoate]
neutrophil speed [1]: low neutrophil speed
